In patent publication US9087996B2, “Fluorine-containing aromatic compound and production method thereof” (Asahi Glass Company, Limited, priority 2012, dated 2015):

What was measured:
[1] = format: physicochemical
Method: In order to investigate applicability of the compound (o) obtained in Example 7-c to a wet process, a solubility test of the compound in various solvents was conducted. In addition, a solubility test of pentacene was also conducted as reference.
Specifically, 20 mg of a sample was weighed and it was visually judged whether it dissolves in 10 g of a solvent at room temperature (0.2% by weight).

melting point [°C] | Compound | Solubility in Chloroform [1] | Solubility in Cyclohexane [1] | Solubility in Hexane [1] | Solubility in THF [1] | Solubility in Toluene [1] | Solubility in o-Dichlorobenzene [1]
123.5 to 124.1 | COc1ccc(C#Cc2ccc3c(C(F)(F)F)c4ccccc4c(C(F)(F)F)c3c2)cc1 [Compound (a1), 2-[(4-methoxyphenyl)ethynyl]-9,10-bis(trifluoromethyl)anthracene] | – | – | – | – | – | –
215 to 215.5 | FC(F)(F)c1c2ccc(C#Cc3ccccc3)cc2c(C(F)(F)F)c2ccc(C#Cc3ccccc3)cc12 [Compound (b1), 2,6-bis(phenylethynyl)-9,10-bis(trifluoromethyl)anthracene] | – | – | – | – | – | –
– | FC(F)(F)c1c2cc3ccccc3cc2c(C(F)(F)F)c2cc3ccccc3cc12 [Compound (o)] | Yes | Yes | Yes | Yes | Yes | Yes
– | c1ccc2cc3cc4cc5ccccc5cc4cc3cc2c1 [Pentacene, pentacene, reference compound] | No | No | No | No | No | No
